Patent US11103514B2, “Treatment of muscular dystrophy” (Corcept Therapeutics, Inc., priority 2010, dated 2021)

How the values were obtained:
[1] = percent of the daily dose; in one study (Kawai); cited from earlier work
[2] = tested on: bitransgenic EpA960/MCM mice; assay: Tamoxifen-inducible heart-specific DM1 mouse model, mortality; type: in vivo; settings: intraperitoneal mifepristone in saline, beginning 2 hours after first tamoxifen injection; 1-100 mg per kg body weight; mock-treated mice 80% died within 3 weeks
Protocol: In this model, EpA960 RNA is induced in the bitransgenic EpA960/MCM mice (F1 progeny) by 5 consecutive daily intraperitoneal injections of tamoxifen (20 mg/kg/d) leading to high mortality, conduction abnormalities, and systolic and diastolic dysfunction. […] Control or mock-treated mice are injected with saline solution alone. Each of the control and test groups typically includes 10-20 mice.
Typically, eighty percent of the mock-treated mice died within 3 weeks of RNA induction due to arrhythmias and/or contractile dysfunction. […] Description of experimental procedures can be found in, e.g., Wang et al., J Clin Invest. 2009; 119(12):3797-806.

## CC#C[C@]1(O)CC[C@H]2[C@@H]3CCC4=CC(=O)CCC4=C3[C@@H](c3ccc(N(C)C)cc3)C[C@@]21C [Mifepristone, 17-β-hydroxy-11-β-(4-dimethyl-aminophenyl)-17-α-(1-propynyl)-estra-4,9-dien-3-one]
[1]
  daily dose excreted in the urine: less than 0.5%
[2]
  reduction of the mortality of bitransgenic mice: at least 10%
